Like-named read-outs stand apart in the source and are kept apart here.
Tests used:
ACHN = experiment: In-Vitro Testing SRB panel: Renal Cancer; type: cell-based; settings: 48 h
M14 = experiment: In-Vitro Testing SRB panel: Melanoma; type: cell-based; settings: M14, 48 h
HT29 = experiment: In-Vitro Testing SRB panel: Colon Cancer; type: cell-based
ROP-62 = type: cell-based; settings: 48 h
IGROV1 = experiment: In-Vitro Testing SRB panel: Ovarian Cancer; type: cell-based
KM12 = experiment: In-Vitro Testing SRB panel: Colon Cancer; type: cell-based; settings: KM12, 48 h
SNB-75 = experiment: In-Vitro Testing SRB panel: CNS Cancer; type: cell-based; settings: SNB-75, 48 h
ROP-92 = type: cell-based; settings: 48 h
RXF 393 = experiment: In-Vitro Testing SRB panel: Renal Cancer; type: cell-based; settings: RXF 393, 48 h
[1] = test system: squamous cell carcinoma (KLN-205) cells; experiment: Tumor growth in murine squamous cell carcinoma model; type: in vivo, mouse
HS 578T = experiment: In-Vitro Testing SRB panel: Breast Cancer; type: cell-based; settings: 48 h
[2] = test system: H209 small lung cell carcinoma; experiment: Mouse xenograft tumor growth; type: in vivo, SCID mice
SK-MEL-5 = experiment: In-Vitro Testing SRB panel: Melanoma; type: cell-based; settings: SK-MEL-5, 48 h
MDA-MB-231/ATCC = experiment: In-Vitro Testing SRB panel: Breast Cancer; type: cell-based
HCT-116 = experiment: In-Vitro Testing SRB panel: Colon Cancer; type: cell-based; settings: HCT-116, 48 h
UACC-257 = experiment: In-Vitro Testing SRB panel: Melanoma; type: cell-based; settings: UACC-257, 48 h
SNB-19 = experiment: In-Vitro Testing SRB panel: CNS Cancer; type: cell-based; settings: SNB-19, 48 h
OVCAR-5 = experiment: In-Vitro Testing SRB panel: Ovarian Cancer; type: cell-based; settings: OVCAR-5, 48 h
[3] = test system: NIH 3T3 mouse fibroblast cells; experiment: Mitogenic assay (mitogen-induced cell proliferation); type: cell-based
[4] = Homo sapiens, read-out: LC50 (the source's name)

## O=C(c1ccc([N+](=O)[O-])cc1)N1Cc2ccccc2C(c2ccccc2Cl)c2ccccc21 (stereo not shown) [Compound 28, N-(4′-Nitrobenzoyl)-11-(2′-chlorophenyl)-5,6-dihydro-11H-dibenz[b,e]azepine]
ACHN
  TGI: >1.00E−04 Molar
ACHN; Homo sapiens
  GI50: 1.37 µM
ACHN; [4]
  CC50: > 100 µM
ACHN; log10 conc −4.0 Molar
  Percent Growth: 19%
ACHN; log10 conc −5.0 Molar
  Percent Growth: 30%
ACHN; log10 conc −6.0 Molar
  Percent Growth: 53%
ACHN; log10 conc −7.0 Molar
  Percent Growth: 92%
ACHN; log10 conc −8.0 Molar
  Percent Growth: 102%
M14; Homo sapiens
  GI50: 0.941 µM
M14; [4]
  CC50: > 100 µM
M14
  TGI: 2.19E−05 Molar
M14; log10 conc −4.0 Molar
  Percent Growth: −32%
M14; log10 conc −5.0 Molar
  Percent Growth: 16%
M14; log10 conc −6.0 Molar
  Percent Growth: 49%
M14; log10 conc −7.0 Molar
  Percent Growth: 85%
M14; log10 conc −8.0 Molar
  Percent Growth: 94%
HT29; HT29, 48 h
  TGI: >1.00E−04 Molar
HT29; HT29, log10 conc −4.0 Molar, 48 h
  Percent Growth: 27%
HT29; HT29, log10 conc −5.0 Molar, 48 h
  Percent Growth: 27%
HT29; HT29, log10 conc −6.0 Molar, 48 h
  Percent Growth: 38%
HT29; HT29, log10 conc −7.0 Molar, 48 h
  Percent Growth: 78%
HT29; HT29, log10 conc −8.0 Molar, 48 h
  Percent Growth: 86%
HT29; Homo sapiens, HT-29, 48 h
  GI50: 0.505 µM
HT29; Homo sapiens, HT-29, HT29, 48 h, read-out: LC50 (the source's name)
  CC50: > 100 µM
ROP-62; Homo sapiens
  GI50: 13.1 µM
ROP-62; Homo sapiens, ROP-62, read-out: LC50 (the source's name)
  CC50: > 100 µM
ROP-62; ROP-62
  TGI: >1.00E−04 Molar
ROP-62; ROP-62, log10 conc −4.0 Molar
  Percent Growth: 38%
ROP-62; ROP-62, log10 conc −5.0 Molar
  Percent Growth: 52%
ROP-62; ROP-62, log10 conc −6.0 Molar
  Percent Growth: 60%
ROP-62; ROP-62, log10 conc −7.0 Molar
  Percent Growth: 89%
ROP-62; ROP-62, log10 conc −8.0 Molar
  Percent Growth: 91%
IGROV1; Homo sapiens, IGROV-1, 48 h
  GI50: 1.88 µM
IGROV1; Homo sapiens, IGROV-1, IGROV1, 48 h, read-out: LC50 (the source's name)
  CC50: > 100 µM
IGROV1; IGROV1, 48 h
  TGI: >1.00E−04 Molar
IGROV1; IGROV1, log10 conc −4.0 Molar, 48 h
  Percent Growth: 25%
IGROV1; IGROV1, log10 conc −5.0 Molar, 48 h
  Percent Growth: 34%
IGROV1; IGROV1, log10 conc −6.0 Molar, 48 h
  Percent Growth: 56%
IGROV1; IGROV1, log10 conc −7.0 Molar, 48 h
  Percent Growth: 97%
IGROV1; IGROV1, log10 conc −8.0 Molar, 48 h
  Percent Growth: 102%
KM12; Homo sapiens
  GI50: 0.765 µM
KM12; [4]
  CC50: > 100 µM
KM12
  TGI: >1.00E−04 Molar
KM12; log10 conc −4.0 Molar
  Percent Growth: 15%
KM12; log10 conc −5.0 Molar
  Percent Growth: 26%
KM12; log10 conc −6.0 Molar
  Percent Growth: 45%
KM12; log10 conc −7.0 Molar
  Percent Growth: 84%
KM12; log10 conc −8.0 Molar
  Percent Growth: 94%
SNB-75; Homo sapiens
  GI50: 5.25 µM
SNB-75; [4]
  CC50: > 100 µM
SNB-75
  TGI: >1.00E−04 Molar
SNB-75; log10 conc −4.0 Molar
  Percent Growth: 17%
SNB-75; log10 conc −5.0 Molar
  Percent Growth: 26%
SNB-75; log10 conc −6.0 Molar
  Percent Growth: 75%
SNB-75; log10 conc −7.0 Molar
  Percent Growth: 111%
SNB-75; log10 conc −8.0 Molar
  Percent Growth: 108%
ROP-92; Homo sapiens
  GI50: 7.51 µM
ROP-92; Homo sapiens, ROP-92, read-out: LC50 (the source's name)
  CC50: > 100 µM
ROP-92; ROP-92
  TGI: >1.00E−04 Molar
ROP-92; ROP-92, log10 conc −4.0 Molar
  Percent Growth: 19%
ROP-92; ROP-92, log10 conc −5.0 Molar
  Percent Growth: 46%
ROP-92; ROP-92, log10 conc −6.0 Molar
  Percent Growth: 79%
ROP-92; ROP-92, log10 conc −7.0 Molar
  Percent Growth: 104%
ROP-92; ROP-92, log10 conc −8.0 Molar
  Percent Growth: 100%
RXF 393; Homo sapiens
  GI50: 1.39 µM
RXF 393; [4]
  CC50: > 100 µM
RXF 393
  TGI: 7.75E−06 Molar
RXF 393; log10 conc −4.0 Molar
  Percent Growth: −12%
RXF 393; log10 conc −5.0 Molar
  Percent Growth: −7%
RXF 393; log10 conc −6.0 Molar
  Percent Growth: 60%
RXF 393; log10 conc −7.0 Molar
  Percent Growth: 98%
RXF 393; log10 conc −8.0 Molar
  Percent Growth: 99%
[1]; KLN induced tumors
  cyclin D1 and PCNA expression in vivo: abrogated cyclin D1 and PCNA expression
[1]; KLN-205, subcutaneous injection or oral administration of 80 mg/kg/day for 30 days
  tumor growth: significantly inhibited tumor growth
HS 578T; HS 578T
  TGI: >1.00E−04 Molar
HS 578T; HS 578T, log10 conc −4.0 Molar
  Percent Growth: 42%
HS 578T; HS 578T, log10 conc −5.0 Molar
  Percent Growth: 121%
HS 578T; HS 578T, log10 conc −6.0 Molar
  Percent Growth: 125%
HS 578T; HS 578T, log10 conc −7.0 Molar
  Percent Growth: 187%
HS 578T; HS 578T, log10 conc −8.0 Molar
  Percent Growth: 193%
HS 578T; Homo sapiens, Hs-578T
  GI50: 80.2 µM
HS 578T; Homo sapiens, HS 578T, read-out: LC50 (the source's name)
  CC50: > 100 µM
[2]
  tumor growth: significantly inhibited tumor growth
SK-MEL-5; Homo sapiens
  GI50: 0.529 µM
SK-MEL-5; [4]
  CC50: > 100 µM
SK-MEL-5
  TGI: 1.74E−05 Molar
SK-MEL-5; log10 conc −4.0 Molar
  Percent Growth: −25%
SK-MEL-5; log10 conc −5.0 Molar
  Percent Growth: 8%
SK-MEL-5; log10 conc −6.0 Molar
  Percent Growth: 40%
SK-MEL-5; log10 conc −7.0 Molar
  Percent Growth: 76%
SK-MEL-5; log10 conc −8.0 Molar
  Percent Growth: 84%
MDA-MB-231/ATCC; Homo sapiens, MDA-MB-231, 48 h
  GI50: 4.94 µM
MDA-MB-231/ATCC; Homo sapiens, MDA-MB-231/ATCC, 48 h, read-out: LC50 (the source's name)
  CC50: > 100 µM
MDA-MB-231/ATCC; MDA-MB-231/ATCC, 48 h
  TGI: >1.00E−04 Molar
MDA-MB-231/ATCC; MDA-MB-231/ATCC, log10 conc −4.0 Molar, 48 h
  Percent Growth: 22%
MDA-MB-231/ATCC; MDA-MB-231/ATCC, log10 conc −5.0 Molar, 48 h
  Percent Growth: 36%
MDA-MB-231/ATCC; MDA-MB-231/ATCC, log10 conc −6.0 Molar, 48 h
  Percent Growth: 72%
MDA-MB-231/ATCC; MDA-MB-231/ATCC, log10 conc −7.0 Molar, 48 h
  Percent Growth: 96%
MDA-MB-231/ATCC; MDA-MB-231/ATCC, log10 conc −8.0 Molar, 48 h
  Percent Growth: 103%
HCT-116
  TGI: >1.00E−04 Molar
HCT-116; log10 conc −4.0 Molar
  Percent Growth: 11%
HCT-116; log10 conc −5.0 Molar
  Percent Growth: 19%
HCT-116; log10 conc −6.0 Molar
  Percent Growth: 27%
HCT-116; log10 conc −7.0 Molar
  Percent Growth: 93%
HCT-116; log10 conc −8.0 Molar
  Percent Growth: 103%
HCT-116; Homo sapiens
  GI50: 0.447 µM
HCT-116; [4]
  CC50: > 100 µM
UACC-257; Homo sapiens
  GI50: 0.441 µM
UACC-257; [4]
  CC50: > 100 µM
UACC-257
  TGI: >1.00E−04 Molar
UACC-257; log10 conc −4.0 Molar
  Percent Growth: 6%
UACC-257; log10 conc −5.0 Molar
  Percent Growth: 9%
UACC-257; log10 conc −6.0 Molar
  Percent Growth: 35%
UACC-257; log10 conc −7.0 Molar
  Percent Growth: 78%
UACC-257; log10 conc −8.0 Molar
  Percent Growth: 81%
SNB-19; Homo sapiens
  GI50: 3.27 µM
SNB-19; [4]
  CC50: > 100 µM
SNB-19
  TGI: >1.00E−04 Molar
SNB-19; log10 conc −4.0 Molar
  Percent Growth: 32%
SNB-19; log10 conc −5.0 Molar
  Percent Growth: 44%
SNB-19; log10 conc −6.0 Molar
  Percent Growth: 56%
SNB-19; log10 conc −7.0 Molar
  Percent Growth: 95%
SNB-19; log10 conc −8.0 Molar
  Percent Growth: 99%
OVCAR-5; Homo sapiens
  GI50: > 100 µM
OVCAR-5; [4]
  CC50: > 100 µM
OVCAR-5
  TGI: >1.00E−04 Molar
OVCAR-5; log10 conc −4.0 Molar
  Percent Growth: 68%
OVCAR-5; log10 conc −5.0 Molar
  Percent Growth: 75%
OVCAR-5; log10 conc −6.0 Molar
  Percent Growth: 91%
OVCAR-5; log10 conc −7.0 Molar
  Percent Growth: 96%
OVCAR-5; log10 conc −8.0 Molar
  Percent Growth: 110%
[3]; NIH3T3
  IC50: 0.04 to 0.5 µM
[3]; NIH3T3, 10 μM compound
  inhibition at 10 µM: 99%
